For the experiment, the target named is TDP-43 1-260 (Homo sapiens, UniProt Q13148). The experiment can be described thus: TDP-43 alpha-screen assay with bt-TAR32. Format: binding. Conditions: bt-TAR32 0.125 nM; 3 h at room temperature; read-out: Activity (μM) in the TDP-43-DNA alpha-screen assay. (In general: Alpha assays give light when donor and acceptor beads are brought close together.)
Sequence of TDP-43 1-260 (Q13148 1-260): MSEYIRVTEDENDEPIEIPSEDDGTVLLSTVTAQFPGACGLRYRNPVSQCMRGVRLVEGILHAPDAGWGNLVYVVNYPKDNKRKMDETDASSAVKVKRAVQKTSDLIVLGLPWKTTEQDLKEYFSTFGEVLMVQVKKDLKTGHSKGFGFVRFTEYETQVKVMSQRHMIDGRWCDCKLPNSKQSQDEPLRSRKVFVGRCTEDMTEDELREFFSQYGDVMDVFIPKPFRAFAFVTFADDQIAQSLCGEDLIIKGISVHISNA

Protocol: Alpha-screen assay. […] Briefly, assays contained TDP-43 1-260 (15 ng/mL, 0.27 nM), 10 mg/mL of both streptavidin donor beads and anti-GST acceptor beads with various concentrations of bt-TAR32 (˜18 to +14 in the HIV1 LTR) and test compound in a final volume of 20 mL of 25 mM Tris, 0.1% CHAPS, pH 7.4 in white, opaque low volume 384-well plates. After 3 h incubation at room temperature, the AlphaScreen signal was measured using a Synergy 2 plate reader (Biotek, Winooski, VT). […] Nonspecific binding was determined in the presence of 10 mM bt-TDP43 and was less than 10% of total binding. IC50 values were obtained from nonlinear regression fits of the data to a one-site binding model using Graph Pad Prism, version 5.0 (GraphPad Software, San Diego, CA). Comparison of competitive inhibition and mixed type inhibition models were evaluated using the F-test on global fits of the data also in Graph Pad Prism, version 5.0.

With `COc1ccc(-c2cc(NCC3CN(C)CCO3)cc(-c3ccc(N4CCN(C)CC4)cc3)n2)cc1` (stereo not drawn) [Example 56], the IC50 is 3.24 µM.
As for `COc1ccc(-c2cc(NCC3CCCN3)cc(-c3ccc(N4CCC(C)CC4)cc3)n2)cc1` (stereo not drawn) [Example 57], the IC50 came to 2.85 µM.
As to `COc1ccc(-c2cc(NC3CC4CCC(C3)N4C)cc(-c3ccc(N4CCN(C)CC4)cc3)n2)cc1` (stereo not drawn) [Example 58], the IC50 was 2.85 µM.
The value for `COc1ccc(-c2cc(NCCCN(C)C)cc(-c3ccc(N4CCOCC4)cc3)n2)cc1` [Example 59] was 2.04 µM.
For `COc1ccc(-c2cc(NC3CCNCC3(F)F)cc(-c3ccc(N4CCN(C)CC4)cc3)n2)cc1` (stereo not drawn) [Example 60], the IC50 is 11 µM.
Consider `COc1ccc(-c2cc(NCCCN3CCCCC3)cc(C3=CCNCC3)n2)cc1` [Example 61], for which the IC50 was 1.87 µM.
The value for `COc1ccc(-c2cc(NCCCN(C)C)cc(-c3ccc(C[C@@H](N)C(=O)O)cc3)n2)cc1` [Example 62] was 1.85 µM; that for `COc1ccc(-c2cc(NCC(F)(F)CN)cc(-c3ccc(N4CCN(C)CC4)cc3)n2)cc1` [Example 63, N-(3-amino-2,2-difluoropropyl)-2-(4-methoxyphenyl)-6-(4-(4-methylpiperazin-1-yl)phenyl)pyridin-4-amine] was 1.49 µM.
On to `COc1ccc(-c2cc(/N=N\C3CCNCC3)cc(-c3ccc(N4CCNCC4)cc3)n2)cc1` [Example 64], for which the IC50 stood at 1.48 µM.
The value for `COc1ccc(-c2cc(NCCCN3CCC4NCCC43)cc(-c3ccc(N4CCNCC4)cc3)n2)cc1` (stereo not drawn) [Example 65] was 1.32 µM; that for `COc1ccc(-c2cc(NCCCOCCCN)cc(-c3ccc(N4CCNCC4)cc3)n2)cc1` [Example 66] was 1.2 µM; that for `COc1ccc(-c2cc(NCC3CCCN(C)C3)cc(-c3ccc(N4CCN(C)CC4)cc3)n2)cc1` (stereo not drawn) [Example 67] was 1.17 µM.
For `COc1ccc(-c2cc(NC3CCNCC3F)cc(-c3ccc(N4CCN(C)CC4)cc3)n2)cc1` (stereo not drawn) [Example 68], the IC50 came out at 0.89 µM.
Consider `COc1ccc(-c2cc(NCCCN(C)CCCN)cc(-c3ccc(N4CCCCC4)cc3)n2)cc1` [Example 69], for which the IC50 is 0.74 µM.
Regarding `COc1ccc(-c2cc(NCCN(C)CCN)cc(-c3ccc(N4CCNCC4)cc3)n2)cc1` [Example 70], the IC50 is 0.63 µM.
As for `COc1ccc(-c2cc(NCCCN(C)CCCN)cc(CCC3CC3)n2)cc1` [Example 71, N-{3-[(3-aminopropyl)(methyl)amino]propyl}-2-(2-cyclopropylethyl)-6-(4-methoxyphenyl)pyridin-4-amine], the IC50 came to 0.57 µM.
Take `COc1ccc(-c2cc(NCCCN3CCNCC3)cc(-c3ccc(N4CCN(C)CC4)cc3)n2)cc1` [Example 72]: the IC50 is 0.55 µM.
`COc1ccc(-c2cc(NCCOCCN)cc(-c3ccc(N4CCNCC4)cc3)n2)cc1` [Example 73, N-(2-(2-aminoethoxy)ethyl)-2-(4-methoxyphenyl)-6-(4-(piperazin-1-yl)phenyl)pyridin-4-amine]: the IC50 was determined as 0.49 µM.
With `COc1ccc(-c2cc(NCCN3CCNCC3)cc(-c3ccc(N4CCNCC4)cc3)n2)cc1` [Example 74], the IC50 was found to be 0.49 µM.
For `COc1ccc(-c2cc(N[C@@H]3CCNC[C@@H]3OC)cc(-c3ccc(N4CCN(C)CC4)cc3)n2)cc1` [Example 75], the IC50 was determined as 0.36 µM.
Turning to `COc1ccc(-c2cc(NCCCN(C)CCCN)cc(-c3ccc(N4CCN(C)C(F)C4)cc3)n2)cc1` (stereo not drawn) [Example 76], the IC50 was determined as 0.23 µM.
As for `CN(CCCN)CCCNc1cc(-c2ccc(-c3ccncc3)cc2)nc(-c2ccc(N3CCNCC3)cc2)c1` [Example 77], the IC50 was determined as 0.13 µM.
For `COc1ccc(-c2cc(NCCCN(C)CCCN)nc(-c3ccc(N4CCNCC4)cc3)n2)cc1` [Example 78, N-{3-[(3-aminopropyl)(methyl)amino]propyl}-6-(4-methoxyphenyl)-2-[4-(piperazin-1-yl)phenyl]pyrimidin-4-amine], the IC50 was determined as 0.2 µM.
For `COc1ccc(-c2cc(NCCCN(C)C)cc(-c3ccc(OCCCN(C)C)cc3)n2)cc1` [Example 80], the IC50 turned out to be 0.21 µM.

(Values after patent US20240148722A1, “SMALL MOLECULES THAT BIND TO TDP-43 FOR THE TREATMENT OF ALS AND RELATED DISORDERS” (Biohaven Therapeutics Ltd., priority 2021, published 2024).)
